Holding throughout (experiment): NCI-60 cell line screen, 48 h
For assay [1], the system named is NCI-H226 lung.
The test system of assay [2] is MCF7 breast.
In assay [3] the test system is HS 578T breast.
Assay [4] relates to U251 CNS.
For assay [5], the system named is OVCAR-8 ovarian.
Assay [6] has as its system EKVX NSCLC.
Assay [7] has as its system ACHN renal.
The test system of assay [8] is MALME-3M melanoma.
Assay [9] relates to A549 NSCLC.
The subject of assay [10] is MDA-MB-435.

For eight compounds, TGI and GI50 results are on record in PubChem BioAssay (NCI).

Molecules are shown by their SMILES. Values joined by “and” are separate entries in the source; they are usually repeats but may differ in a detail not shown here. Identical values can stand only once.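 Compound exposure: 48 hours, 5 concentrations, 96-well plates. The concentration for 50% growth inhibition is given as GI50. TGI marks complete inhibition of growth.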

With `Nc1ncnc2c1ncn2C1OC(C(=O)OCCO)C(O)C1O` (stereo not drawn), the TGI in assay [1], in [2], in assay [3], in [4], in assay [5] and in assay [6] was over 100 µM each time. The TGI in assay [7], in assay [8], in [9] and in assay [10] was over 100 µM each time.
Regarding `NCCNc1ncnc2ccc(Cl)cc12`, the TGI in assay [1], in assay [2], in [3], in [4], in assay [5] and in assay [6] was over 100 µM each time. For the same compound, the TGI in [7], in assay [8], in assay [9] and in assay [10] was over 100 µM in each case.
For `COC(=O)[C@]1(C)CC[C@]2(C)CC[C@]3(C)C(=CC(=O)[C@@H]4[C@@]5(C)CCC(=O)NC(C)(C)[C@@H]5CC[C@]43C)[C@@H]2C1`, the GI50 in assay [1] is 14.9 µM; in assay [2] it was 13.3 µM; in assay [3], 32.7 µM; in assay [4] it was 23.3 µM; in assay [5], 29.2 µM; in assay [6], 25.5 µM. Moreover, the GI50 in assay [7] was 24 µM; in [8], 18.3 µM; in [9] it was 32.8 µM; in [10], 26.6 µM. Further, the TGI in [1] was 35.4 µM; in [2] it was 43.5 µM; in [3] it was over 100 µM; in assay [4], 89.3 µM; in assay [5], over 100 µM; in assay [6], over 100 µM. Further, the TGI in assay [7] was 89.4 µM; in assay [8], 38 µM; in [9], over 100 µM; in [10] it was over 100 µM.
As to `COC(=O)C1=C(O)C(C(=O)OC)[C@@]2(O)[C@@H](C(=O)OC)C(c3ccccc3Cl)C[C@@H]1[C@@H]2C(=O)OC` (stereo partly drawn), the GI50 was 3.77 µM in assay [1]; 5.24 µM in assay [2]; 10.1 µM in [3]; 3.76 µM in assay [4]; 5.81 µM in assay [5]; 19.4 µM in assay [6]. In addition, the GI50 in assay [7] is 5.96 µM; in [8] it was 10.6 µM; in assay [9], 9.04 µM; in [10], 3.09 µM. The TGI in [1] is 15.1 µM; in [2], over 100 µM; in assay [3], 43.7 µM; in [4] it was 15 µM; in assay [5], 34 µM; in assay [6] it was 38.3 µM. The TGI is 23.4 µM in [7], 29.9 µM in assay [8], 53.9 µM in assay [9] and 8.82 µM in [10].
Take `O=C(CN1CCN(c2ccccn2)CC1)Nc1ccc(Cl)cc1C(=O)c1ccccc1Cl`: the GI50 is over 100 µM in [1]; 9.26 µM in assay [2]; over 100 µM in assay [3]; over 100 µM in [4]; over 100 µM in [5]; 45.4 µM in assay [6]. Besides, the GI50 in assay [7] is 56.1 µM; in assay [8], over 100 µM; in assay [9] it was 14.3 µM; in assay [10], 28.4 µM. The TGI in assay [1], in assay [2], in assay [3], in assay [4], in assay [5] and in assay [6] was over 100 µM throughout. In addition, the TGI in [7], in assay [8], in assay [9] and in assay [10] was over 100 µM throughout.
On to `Cn1c(=O)c2[nH]cnc2n(C)c1=O.[CH2-]C(Cc1cccc2cc(C(=O)O)c(=O)oc12)OC.[Hg+2].[OH-]` (stereo not drawn), for which the GI50 in assay [1] was 21.4 µM; in assay [2] it was 16.6 µM; in assay [3] it was 22.2 µM; in assay [4], 16.3 µM; in [5], 18 µM; in assay [6] it was 20.7 µM. Also, the GI50 in [7] was 16.3 µM; in [8] it was 8.67 µM; in assay [9], 19 µM; in assay [10], 16.9 µM. For the same compound, the TGI in [1] is 40.7 µM; in assay [2], 33 µM; in assay [3], 57.3 µM; in assay [4], 29.8 µM; in [5] it was 32 µM; in assay [6], 37.4 µM. In addition, the TGI in assay [7] turned out to be 29.9 µM; in assay [8], 20.4 µM; in assay [9] it was 37.4 µM; in assay [10], 30.6 µM.
Take `Nc1cc(N)c2nc(-c3ccccc3)c(Oc3ccc(Cl)c(Cl)c3)nc2c1`: the GI50 in [1] is 15.1 µM; in [2], 14.2 µM; in assay [3], 10.6 µM; in assay [4], 12.1 µM; in assay [5], 27.9 µM; in assay [6], 2.16 µM. Moreover, the GI50 in assay [8] is 15.8 µM; in assay [9], 18.1 µM; in assay [10], 5.03 µM. In addition, the TGI was determined as 49.5 µM in [1]; 70.6 µM in assay [2]; 33.7 µM in [3]; 31.9 µM in assay [4]; 88.4 µM in assay [5]; 8.35 µM in [6]. The TGI in [8] is 37.4 µM; in assay [9], 43.5 µM; in assay [10], 21.1 µM.
Regarding `NC(N)=NC(N)=NCc1ccco1`, the GI50 was over 1250 µM in [1]; 600 µM in [2]; over 1250 µM in assay [3]; 516 µM in [4]; 896 µM in [5]; 117 µM and 31.7 µM in assay [6]. In addition, the GI50 in assay [7] is over 1250 µM; in assay [8] it was 741 µM; in assay [9], 340 µM and 325 µM; in assay [10] it was over 1250 µM. Besides, the TGI in [1], in [2], in [3], in assay [4], in assay [5] and in [6] was over 1250 µM in each case. The TGI in assay [7], in [8], in assay [9] and in assay [10] was over 1250 µM throughout.
